Experimental data published in paper PMC11940194, “Synthesis, Antiproliferative Activity, and ADME Profiling of Novel Racemic and Optically Pure Aryl-Substituted Purines and Purine Bioisosteres” (Biomolecules, 2025).

Columns and labels:
[1] = system: colorectal carcinoma (HT-29) cells; test: Antiproliferative MTT assay, HT-29; type: cell-based, human; conditions: for IC50: Homo sapiens, HT-29, 72 h, 72 h incubation, MTT, mean ± SD
Procedure, shortened: (§1)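 Growth inhibition is measured by MTT after cells are exposed for 72 h to compounds spanning 0.01 to 100 µM. IC50 is derived from dose–response curves by linear regression, with quadruplicate wells in two independent runs.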

[2] = system: normal skin fibroblasts (HFF-1); test: Cytotoxicity MTT assay, normal skin fibroblasts; type: cell-based, human; conditions: Homo sapiens, HFF-1, 72 h, 72 h incubation, mean ± SD
Procedure, shortened: as §1

[3] = system: breast adenocarcinoma (MCF7) cells; test: Antiproliferative MTT assay, MCF-7; type: cell-based, human; conditions: Homo sapiens, MCF7; 72 h incubation, MTT; mean ± SD
Procedure, shortened: as §1

[4] = Metabolic stability in mouse liver microsomes; type: in vitro ADME; conditions: for Clearance Class.: mouse liver microsomes; for Clearance Values (CL): predicted in vivo hepatic clearance from mouse liver microsome t1/2, 1 µM compound
From the text: Mouse liver microsomes were obtained from Corning Life Sciences (Corning, NY, USA). DMSO, nicotinamide adenine dinucleotide phosphate (NADP), glucose-6-phosphate, glucose-6-phosphate dehydrogenase, magnesium chloride, propranolol, caffeine, diclofenac, and phosphate-buffered saline (PBS) were purchased from Sigma (St. Louis, MO, USA). Acetonitrile (ACN) and methanol (MeOH) were obtained from Merck (Darmstadt, Germany). Testosterone was purchased from Steraloids (Newport, RI, USA). Metabolic stability was assessed in mouse liver microsomes. Compounds (final concentration of 1 µM, 0.03% DMSO v/v) were incubated in duplicate in phosphate buffer (50 mM, pH 7.4) at 37 °C together with mouse liver microsomes in the absence and presence of the NADPH cofactor (0.5 mM nicotinamide adenine dinucleotide phosphate, 5 mM glucose-6-phosphate, 1.5 U/mL glucose-6-phosphate dehydrogenase, and 0.5 mM magnesium chloride). Incubation and sampling were performed on a Freedom EVO 200 (Tecan, Männedorf, CH, Switzerland) at […], 10, 20, 30, 45, and 60 min. The reaction was quenched using 3 volumes of a mixture of ACN/MeOH (2:1) containing internal standard (diclofenac), centrifuged, and the supernatants were analyzed using LC-MS/MS. The metabolic activity of the microsomes was verified via simultaneous analysis of several controls including testosterone, propranolol, and caffeine. The in vitro half-life (t1/2) was calculated using GraphPad Prism (v9.0 software) non-linear regression of % of parent compound remaining versus time. In vitro clearance, expressed as µL/min/mg, was estimated from the in vitro half-life (t1/2) and normalized for the protein amount in the incubation mixture, assuming 52.5 mg of protein per gram of liver and using constant values for mouse liver weight/body weight [87.5 g/kg] and mouse liver blood flow (LBF) [131 mL/min/kg].
(§2) All samples were quantified using tandem mass spectrometry coupled to liquid chromatography. Samples were analyzed on a Sciex API4000 Triple Quadrupole Mass Spectrometer (Sciex, Division of MDS Inc., Toronto, Canada) coupled to a Shimadzu Nexera X2 UHPLC frontend (Kyoto, Japan). Samples were injected onto a UHPLC column (HALO2 C18, 2.1 × 20 mm, 2 µm or Luna Omega 1.6 µm Polar C18 100A, 30 × 2.1 mm) and eluted with a gradient at 50 °C. The mobile phase was composed of acetonitrile/water mixture (9/1, with 0.1% formic acid) and 0.1% formic acid in deionized water. The flow rate was 0.7 mL/min under gradient conditions, leading to a total run time of 1.5–2 min. A positive ion mode with turbo spray, an ion source temperature of 550 °C, and a dwell time of 150 ms were utilized for mass spectrometric detection. Quantitation was performed using multiple reaction monitoring (MRM) at the specific transitions for each compound.

[5] = system: pancreatic ductal adenocarcinoma (CFPAC-1) cells; test: Antiproliferative MTT assay, CFPAC-1; type: cell-based, human; conditions: for IC50: Homo sapiens, CFPAC-1, 72 h, 72 h incubation, MTT, mean ± SD; for SI (CFPAC-1): SI = [IC50 HFF]/[IC50 CFPAC-1]
Procedure, shortened: as §1

[6] = system: hepatocellular carcinoma (HepG2) cells; test: Antiproliferative MTT assay, HepG2; type: cell-based, human; conditions: for IC50: Homo sapiens, HepG2, 72 h, 72 h incubation, MTT, mean ± SD
Procedure, shortened: as §1

[7] = system: P-glycoprotein (human MDR1); test: MDCKII-MDR1 permeability assay; type: in vitro ADME, canine cells with over-expressed human MDR1 gene; conditions: dog, MDCK-MDR1; for Papp A→B at 60 min, 10 µM / Papp B→A at 60 min, 10 µM: 37 °C; for efflux ratio at 60 min, 10 µM: <2 no efflux, >2 active efflux
Procedure: (§3) MDCKII-hMDR1 cells were obtained from Solvo Biotechnology, Hungary. DMEM, fetal bovine serum, Glutamax-100, Antibiotic/Antimycotic, DMSO, Dulbecco’s phosphate-buffered saline, and MEM Non-essential amino acids were purchased from Sigma (St. Louis, MO, USA). Bi-directional permeability and P-glycoprotein substrate assessments were carried out in Madin-Darby canine epithelial cells with the over-expressed human MDR1 gene (MDCKII-MDR1), coding for P-glycoprotein. Experimental procedures, as well as cell culture conditions, were the same as previously described. Briefly, compounds (10 µM, 1% DMSO v/v) in duplicate were incubated at 37 °C for 60 min with cell monolayer on 24-well Millicell inserts (Millipore, Burlington, MA, USA) with and without the P-glycoprotein inhibitor Elacridar (2 µM, International Laboratory, San Francisco, CA, USA). The inhibition of P-glycoprotein was verified by amprenavir (Moravek Biochemicals Inc, Brea, CA, USA) and monolayer integrity using Lucifer yellow (Sigma, St. Louis, MO, USA). LC-MS/MS measured compound concentrations and Lucifer yellow was measured on an Infinite F500 (Tecan, Männedorf, CH, Switzerland) using excitation of 485 nm and emission of 530 nm.
as §2

[8] = system: MDCKII-MDR1 cells (P-glycoprotein); test: MDCKII-MDR1 permeability assay; type: in vitro ADME, canine cells with over-expressed human MDR1 gene; conditions: permeability class
Procedure: as §3, §2

OCC(c1ccc(Br)cc1)n1cc(Cn2ccc3ccccc32)nn1 (stereo not drawn) [Compound 29a, 1-((1-(2-Hydroxy-1-(4-bromophenyl)ethyl)-1H-1,2,3-triazol-4-yl)methyl)-1H-indole]
IC50 [1]: 34 ± 0.3 µM | IC50 [2]: > 100 µM | IC50 [3]: 24 ± 1 µM | Clearance Class. [4]: MODERATE (30–70% moderate) | Clearance Values (CL) [4]: 43% | IC50 [5]: 39 ± 2.8 µM | SI (CFPAC-1) [5]: >2.6 | IC50 [6]: 29 ± 0.8 µM | Papp A→B at 60 min, 10 µM [7]: 10 ×10⁻⁶ cm/s | Papp B→A at 60 min, 10 µM [7]: 25.5 ×10⁻⁶ cm/s | efflux ratio at 60 min, 10 µM [7]: 2.6 | Permeability [8]: HIGH

OC(Cn1cc(Cn2ccc3ccccc32)nn1)c1ccc(Br)cc1 (stereo not drawn) [Compound 29b, 1-((1-(2-Hydroxy-2-(4-bromophenyl)ethyl)-1H-1,2,3-triazol-4-yl)methyl)-1H-indol]
IC50 [1]: 36 ± 1.4 µM | IC50 [2]: 25 ± 4.1 µM | IC50 [3]: 29 ± 14 µM | Clearance Values (CL) [4]: 92% | IC50 [5]: 43 ± 9.1 µM | SI (CFPAC-1) [5]: 0.6 | IC50 [6]: 35 ± 1.8 µM | Papp A→B at 60 min, 10 µM [7]: 18.3 ×10⁻⁶ cm/s | Papp B→A at 60 min, 10 µM [7]: 28.6 ×10⁻⁶ cm/s | efflux ratio at 60 min, 10 µM [7]: 1.7 | Permeability [8]: highest permeability and HIGH

OCC(c1ccc(Br)cc1)n1cc(Cn2cnc3ccccc32)nn1 (stereo not drawn) [Compound 34a, 1-((1-(2-Hydroxy-1-(4-bromophenyl)ethyl)-1H-1,2,3-triazol-4-yl)methyl)-1H-benzimidazole]
IC50 [1]: 39 ± 4.3 µM | IC50 [2]: 42 ± 8.3 µM | IC50 [3]: 22 ± 5.1 µM | Clearance Class. [4]: LOW (<30% low) | IC50 [5]: 15 ± 8.9 µM | SI (CFPAC-1) [5]: 2.8 | IC50 [6]: 35 ± 14.2 µM | Papp A→B at 60 min, 10 µM [7]: ≤ 2 ×10⁻⁶ cm/s | Papp B→A at 60 min, 10 µM [7]: 65.7 ×10⁻⁶ cm/s | efflux ratio at 60 min, 10 µM [7]: 32.8 | Papp at 60 min, 10 µM ([7]; permeability class): ≤ 2 ×10⁻⁶ cm/s

OC(Cn1cc(Cn2cnc3ccccc32)nn1)c1ccc(Br)cc1 (stereo not drawn) [Compound 34b, 1-((1-(2-Hydroxy-2-(4-bromophenyl)ethyl)-1H-1,2,3-triazol-4-yl)methyl)-1H-benzimidazole]
IC50 [1]: 70 ± 14.5 µM | IC50 [2]: 32 ± 14.1 µM | IC50 [3]: 39 ± 10.1 µM | Clearance Class. [4]: MODERATE (30–70% moderate) | Clearance Values (CL) [4]: 48% | IC50 [5]: 8 ± 3.2 µM | SI (CFPAC-1) [5]: 4.0 | IC50 [6]: 64 ± 19.5 µM | Papp A→B at 60 min, 10 µM [7]: 4.3 ×10⁻⁶ cm/s | Papp B→A at 60 min, 10 µM [7]: 69.4 ×10⁻⁶ cm/s | efflux ratio at 60 min, 10 µM [7]: 17.2 | Permeability [8]: MODERATE

OC(Cn1cc(Cn2cnc3c(Cl)ncnc32)nn1)c1ccc(Br)cc1 (stereo not drawn) [Compound 39b, 6-Chloro-9-((1-(2-hydroxy-2-(4-bromophenyl)ethyl)-1H-1,2,3-triazol-4-yl)methyl)-9H-purine]
IC50 [1]: 50 ± 0.6 µM | SI (HT-29) ([1]; SI = [IC50 HFF]/[IC50 HT-29]): 0.6 | IC50 [2]: 30 ± 2.7 µM | IC50 [3]: 21 ± 14 µM | IC50 [5]: 15 ± 1 µM | IC50 [6]: 44 ± 8.1 µM | SI (HepG2) ([6]; SI = [IC50 HFF]/[IC50 HepG2]): 0.7 | Papp A→B at 60 min, 10 µM [7]: 3.1 ×10⁻⁶ cm/s | Papp B→A at 60 min, 10 µM [7]: 69.6 ×10⁻⁶ cm/s | efflux ratio at 60 min, 10 µM [7]: 22.5 | Permeability [8]: MODERATE
